# In patent US20240132478A1, “COCRYSTAL” (Syndesi Therapeutics SA, priority 2020, published 2024):
# “Also recorded” adds a separate entry of the source. Where two headings read alike, the source gives them in different places.
# Assays:
# Type in all cases: physicochemical
# [1] = Storage stability at elevated temperature and humidity (XRPD and HPLC purity after storage)
# [2] = as above; remark: listed apart in the source
# Experimental: Bruker AXS D8 Advance: XRPD diffractograms were collected on a Bruker D8 diffractometer using Cu Kα radiation (40 kV, 40 mA) and a θ-2θ goniometer fitted with a Ge monochromator. The incident beam passes through a 2.0 mm divergence slit followed by a 0.2 mm anti-scatter slit and knife edge. The diffracted beam passes through an 8.0 mm receiving slit with 2.5° Soller slits followed by the Lynxeye Detector. The software used for data collection and analysis was Diffrac Plus XRD Commander and Diffrac Plus EVA respectively. Samples were run under ambient conditions as flat plate specimens using powder as received. The sample was prepared on a polished, zero-background (510) silicon wafer by gently pressing onto the flat surface or packed into a cut cavity. The sample was rotated in its own plane. The details of the data collection method are: • Angular range: 2 to 42° 2θ • Step size: 0.05° 2θ • Collection time: 0.5 s/step (total collection time: 6.40 min)
# Purity analysis was performed on an Agilent Ip 100/Infinity 111260 series system equipped with a diode array detector and using OpenLAB software. The full method details are provided below:
# The three potential cocrystals were characterised using DSC, 1H NMR, TGA and by evaluating their stability with XRPD after 7 or 8 days of being stored at 40° C./75% RH. All three cocrystals were unchanged by XRPD after storage at 40° C./75% RH and none had significant amounts of solvent present (Table 28). The 4 HBA cocrystal appeared to have a similar melt to the starting material (ca. 85° C.). […] All initially appeared to have a 1:1 stoichiometry. […]
# [3] = Differential Scanning Calorimetry (DSC); settings: * = multiple thermal events
# Experimental: TA Instruments Q2000: DSC data were collected on a TA Instruments Q2000 equipped with a 50 position auto sampler. Typically, 0.5 3 mg of each sample, in a pin-holed aluminium pan, was heated at 10° C./min from 25° C. to 235° C. A purge of dry nitrogen at 50 mlmL/min was maintained over the sample. The instrument control software was Advantage for Q Series and Thermal Advantage and the data were analysed using Universal Analysis or TRIOS.
# TA Instruments Discovery DSC: DSC data were also collected on a TA Instruments Discovery DSC equipped with a 50 position auto-sampler. Typically, 0.5 3 mg of each sample, in a pin-holed aluminium pan, was heated at 10° C./min from 25° C. to 235° C. A purge of dry nitrogen at 50 mlmL/min was maintained over the sample. The instrument control software was TRIOS and the data were analysed using TRIOS or Universal Analysis.
# [4] = Gravimetric Vapour Sorption (GVS) moisture sorption isotherm
# Experimental: Sorption isotherms were obtained using a SMS DVS Intrinsic moisture sorption analyser, controlled by DVS Intrinsic Control software. The sample temperature was maintained at 25° C. by the instrument controls. The humidity was controlled by mixing streams of dry and wet nitrogen, with a total flow rate of 200 ml/min. The relative humidity was measured by a calibrated Rotronic probe (dynamic range of 1.0-100% RH), located near the sample. The weight change, (mass relaxation) of the sample as a function of % RH was constantly monitored by a microbalance (accuracy ±0.005 mg). Typically, 5-30 mg of sample was placed in a tared mesh stainless steel basket under ambient conditions. The sample was loaded and unloaded at 40% RH and 25° C. (typical room conditions). A moisture sorption isotherm was performed as outlined below (2 scans per complete cycle). The standard isotherm was performed at 25° C. at 10% RH intervals over a 0-90% RH range. Typically, a double cycle (4 scans) was carried out. Data analysis was carried out within Microsoft Excel using the DVS Analysis Suite.
# The sample was recovered after completion of the isotherm and re-analysed by XRPD.
# [5] = Solubility assessment in solvents (visual); settings: for solubility: read-out: Observations from solubility assessment
# Experimental: API (25 mg) was dispensed to a PLC vial with a magnetic stirrer. At room temperature an aliquot of solvent was added (5 vol.=125 μL) and stirred at 25° C. for at least 5 minutes. A visual assessment was made. Solutions were held at 25° C. and suspensions were placed at 50° C. with stirring for at least 5 minutes. A visual assessment was made and if a suspension was observed, further aliquots of solvent were added at 25° C. and the above steps repeated until a maximum of 50 volumes were added (Table 7).
structure (smiles),measurement,setting,value
"O=C1C[C@H](c2cc(F)c(F)c(F)c2)CN1Cn1ncnc1Cl [API, (4R)-1-[(5-chloro-1H-1,2,4-triazol-1-yl)methyl]-4-(3,4,5-trifluorophenyl)pyrrolidin-2-one]",XRPD after storage,[1]; 25° C./97% RH,XRPD - Unchanged
same,Purity after storage,"[1]; 25° C./97% RH, 7 days","Purity - 7 days: 99.5%, 14 days: 99.5%"
same,Purity after storage,"[1]; 25° C./97% RH, 14 days","Purity - 7 days: 99.5%, 14 days: 99.5%"
same,Purity after storage,"[1]; 40° C./75% RH, 7 days","Purity - 7 days: 99.5%, 14 days: 99.5% XRPD -"
same,Purity after storage,"[1]; 40° C./75% RH, 14 days","Purity - 7 days: 99.5%, 14 days: 99.5% XRPD -"
same,Stability after storage,[1]; 14 days at 25° C./75% RH,stable
same,Stability after storage,[1]; 14 days at 40° C./97% RH,stable
same,XRPD after storage,[2]; 40° C./75% RH,Unchanged
same,Stability at 25° C./97% RH and 40° C./75% RH,[2]; XRPD after storage,"Stable,"
same,Melting point (onset),[3],85.3 °C
same,Hygroscopicity,"[4]; in words, by GVS",not hygroscopic
same,XRPD post-GVS,[4]; sample re-analysed by XRPD after isotherm,no form change observed; also recorded: Unchanged by XRPD post-GVS
same,solubility,"[5]; 1,4-dioxane, 25 °C, organic solvent or mixture, thermodynamic from solid, 1,4-Dioxane, 5 vol, 25° C.",> 200 mg/mL
same,solubility,"[5]; 2-methyl-1-propanol, 25 °C, organic solvent or mixture, thermodynamic from solid, 2-methyl-1-propanol, 5 vol, 25° C.",< 200 mg/mL
same,solubility,"[5]; 2-methyl-1-propanol, 50 °C, organic solvent or mixture, thermodynamic from solid, 2-methyl-1-propanol, 5 vol, 50° C.",> 200 mg/mL
same,solubility,"[5]; 2-propanol, 25 °C, organic solvent or mixture, thermodynamic from solid, 2-Propanol, 5 vol, 25° C.",< 200 mg/mL
same,solubility,"[5]; 2-propanol, 50 °C, organic solvent or mixture, thermodynamic from solid, 2-Propanol, 5 vol, 50° C.",> 200 mg/mL
same,solubility,"[5]; IPA:water (9:1 v/v), 25 °C, organic solvent or mixture, thermodynamic from solid, IPA:Water (9:1 v/v), 5 vol, 25° C.",< 200 mg/mL
same,solubility,"[5]; IPA:water (9:1 v/v), 50 °C, organic solvent or mixture, thermodynamic from solid, IPA:Water (9:1 v/v), 5 vol, 50° C.",> 200 mg/mL
same,solubility,"[5]; IPAC, 25 °C, organic solvent or mixture, thermodynamic from solid, IPAC, 5 vol, 25° C.",> 200 mg/mL
same,solubility,"[5]; MEK, 25 °C, organic solvent or mixture, thermodynamic from solid, MEK, 5 vol, 25° C.",> 200 mg/mL
same,solubility,"[5]; MIBK, 25 °C, organic solvent or mixture, thermodynamic from solid, MIBK, 5 vol, 25° C.",> 200 mg/mL
same,solubility,"[5]; TBME, 25 °C, organic solvent or mixture, thermodynamic from solid, TBME, 5 vol, 25° C.",< 200 mg/mL
same,solubility,"[5]; TBME, 25 °C, organic solvent or mixture, thermodynamic from solid, TBME, 10 vol, 25° C.",< 100 mg/mL
same,solubility,"[5]; TBME, 50 °C, organic solvent or mixture, thermodynamic from solid, TBME, 5 vol, 50° C.",< 200 mg/mL
same,solubility,"[5]; TBME, 50 °C, organic solvent or mixture, thermodynamic from solid, TBME, 10 vol, 50° C.",> 100 mg/mL
same,solubility,"[5]; acetone, 25 °C, organic solvent or mixture, thermodynamic from solid, Acetone, 5 vol, 25° C.",> 200 mg/mL
same,solubility,"[5]; acetone:water (95:5 v/v), 25 °C, organic solvent or mixture, thermodynamic from solid, Acetone:water (95:5 v/v), 5 vol, 25° C.",< 200 mg/mL
same,solubility,"[5]; acetone:water (95:5 v/v), 50 °C, organic solvent or mixture, thermodynamic from solid, Acetone:water (95:5 v/v), 5 vol, 50° C.",> 200 mg/mL
same,solubility,"[5]; acetonitrile, 25 °C, organic solvent or mixture, thermodynamic from solid, Acetonitrile, 5 vol, 25° C.",> 200 mg/mL
same,solubility,"[5]; diethyl ether, 25 °C, organic solvent or mixture, thermodynamic from solid, Diethyl ether, 5 vol, 25° C.",< 200 mg/mL
same,solubility,"[5]; diethyl ether, 25 °C, organic solvent or mixture, thermodynamic from solid, Diethyl ether, 10 vol, 25° C.",< 100 mg/mL
same,solubility,"[5]; diethyl ether, 25 °C, organic solvent or mixture, thermodynamic from solid, Diethyl ether, 50 vol, 25° C.",> 20 mg/mL
same,solubility,"[5]; ethanol, 25 °C, organic solvent or mixture, thermodynamic from solid, Ethanol, 5 vol, 25° C.",< 200 mg/mL
same,solubility,"[5]; ethanol, 50 °C, organic solvent or mixture, thermodynamic from solid, Ethanol, 5 vol, 50° C.",> 200 mg/mL
same,solubility,"[5]; ethanol:water (9:1 v/v), 25 °C, organic solvent or mixture, thermodynamic from solid, Ethanol:Water (9:1 v/v), 5 vol, 25° C.",> 200 mg/mL
same,solubility,"[5]; ethyl acetate, 25 °C, organic solvent or mixture, thermodynamic from solid, Ethyl acetate, 5 vol, 25° C.",> 200 mg/mL
same,Solubility in organic solvents,"[5]; most of the organic solvents tested, water, diethyl ether and n-heptane are the exceptions",good solubility
same,solubility,"[5]; n-heptane, 25 °C, organic solvent or mixture, thermodynamic from solid, n-heptane, 5 vol, 25° C.",< 200 mg/mL
same,solubility,"[5]; n-heptane, 50 °C, organic solvent or mixture, thermodynamic from solid, n-heptane, 5 vol, 50° C.",< 200 mg/mL
same,solubility,"[5]; n-heptane, 50 °C, organic solvent or mixture, thermodynamic from solid, n-heptane, 50 vol, 50° C.",< 20 mg/mL
same,solubility,"[5]; nitromethane, 25 °C, organic solvent or mixture, thermodynamic from solid, Nitromethane, 5 vol, 25° C.",> 200 mg/mL
same,solubility,"[5]; tetrahydrofuran, 25 °C, organic solvent or mixture, thermodynamic from solid, Tetrahydrofuran, 5 vol, 25° C.",> 200 mg/mL
same,solubility,"[5]; toluene, 25 °C, organic solvent or mixture, thermodynamic from solid, Toluene, 5 vol, 25° C.",< 200 mg/mL
same,solubility,"[5]; toluene, 50 °C, organic solvent or mixture, thermodynamic from solid, Toluene, 5 vol, 50° C.",> 200 mg/mL
same,solubility,"[5]; water, 25 °C, water, thermodynamic from solid, Water, 5 vol, 25° C.",< 200 mg/mL
same,solubility,"[5]; water, 25 °C, water, thermodynamic from solid, Water, 10 vol, 25° C.",< 100 mg/mL
same,solubility,"[5]; water, 25 °C, water, thermodynamic from solid, Water, 50 vol, 25° C.",< 20 mg/mL
same,solubility,"[5]; water, 50 °C, water, thermodynamic from solid, Water, 5 vol, 50° C.",< 200 mg/mL
same,solubility,"[5]; water, 50 °C, water, thermodynamic from solid, Water, 10 vol, 50° C.",< 100 mg/mL
same,solubility,"[5]; water, 50 °C, water, thermodynamic from solid, Water, 50 vol, 50° C.",< 20 mg/mL
